Assay results as given in patent publication US20250041379A1, “METHODS AND COMPOSITIONS FOR THE TREATMENT OF CANCER” (Vigeo Therapeutics, Inc., priority 2021, published 2025).
No end group written: not given here.

Columns and labels:
[1] = VT1021 concentration in plasma (pharmacokinetic profile) in the clinical study; assay type: in vivo, human; details: phase I/II study
Excerpt: FIG. 2 is a chart showing the pharmacokinetic profile of VT1021 concentration in the plasma of human patients with glioblastoma (red), pancreatic cancer (green), ovarian cancer (blue), other (purple) or not reported (red) over time following the initial administration at time 0. “Others” and “Not reported” refer to subjects enrolled in the clinical trial with solid tumor indications other than GBM, Panc, and Ovarian cancers.
FIG. 7 is a chart showing the pharmacokinetic profile of VT1021 concentration in the plasma of male (solid line) and female (dotted line) glioblastoma patients over time following the initial administration at time 0.
In the “expansion stage” of the VT1021-01 Study, subjects diagnosed with recurrent GBM, pancreatic cancer, ovarian cancer and other solid tumors were enrolled. […] The correlation between days on study and tumor shrinkage versus expression profile of CD36 and CD47 was analyzed (FIG. 4). The general expression profile of CD36 and CD47 has been assessed by IHC on Tumor Tissue Microarrays (TMAs), which contain biopsy samples collected from pancreatic cancer patients. […]
The blood samples were collected from GBM subjects in the expansion phase, who were treated by VT1021 at 11.8 mg/kg, twice weekly, by IV infusion. VT1021 levels were measured and analyzed among male and female subjects (FIG. 7). […]

GBM = test: Example 4: treatment of GBM with dually elevated CD36 and CD47; assay type: in vivo; details: expected
Experimental: Subjects having GBM are identified using standard clinical protocols. Samples are obtained and levels of CD36 and CD47 measured using methods known in the art. Subjects presenting with dually elevated CD36 and CD47 levels as compared to suitable controls are selected for dosing with VT1021. Subjects advancing to the treatment phase are administered VT1021. Frequency and dosage are determined in accordance with the stage and severity of disease accordingly to methods standard in the art. Tumor burden and other disease indicators are measured and data compiled using methods known in the art.

pancreatic cancer = test: Phase I/II clinical study: tumor burden, stable disease and days on study in pancreatic cancer (Part 2); assay type: in vivo, human
Experimental: VT1021 was evaluated in a recently completed phase I/II open-label, multicenter, dose escalation (Part 1) and expansion (Part 2) clinical study in advanced, refractory, solid tumors including pancreatic cancer (NCT03364400). Seven subjects with pancreatic cancer were dosed in Part 1 and 32 were dosed in Part 2, 17 of which were considered evaluable as having completed ≥1 cycle of VT1021 treatment and tumor imaging during cycle 2. […] In the “expansion stage” of the VT1021-01 Study, subjects diagnosed with recurrent GBM, pancreatic cancer, ovarian cancer and other solid tumors were enrolled. They were treated with VT1021 at 11.8 mg/kg, twice weekly by IV infusion. The blood samples were collected from the clinical study at pre-treatment, 0, 2, 4, 6 hours post treatment to measure the levels of VT1021 (FIG. 2). The tumor biopsy samples prior to treatment and during treatment were collected from the clinical study to measure expression levels of biomarkers including CD36 and CD47, as well as cell surface markers for immune cell populations in the TME by immunohistochemistry assays (FIG. 3, FIG. 4, FIG. 5). The correlation between days on study and tumor shrinkage versus expression profile of CD36 and CD47 was analyzed (FIG. 4). The general expression profile of CD36 and CD47 has been assessed by IHC on Tumor Tissue Microarrays (TMAs), which contain biopsy samples collected from pancreatic cancer patients. TMAs were purchased from commercial sources, not related to the VT1021-01 clinical study. […] A waterfall plot illustrates changes in tumor burden for 14 subjects in Part 2 with pancreatic cancer with measurable disease.

[2] = tested on: tumor microenvironment (TME) in rGBM; test: IHC and multiplex ion beam imaging of immune cells in rGBM tumor biopsy pair; assay type: in vivo, human; details: rGBM subject with CR
Excerpt: FIG. 11C is a bar graph of the change in the percentage of M1 and M2 macrophages in patient tumor tissue as determined by metal ion immunostaining.
FIG. 11E is a bar graph depicting the fold-change in cytotoxic T lymphocytes (CTLs) in patients prior to the onset of treatment with VT1021 (pre-treatment) and during treatment with VT1021 (On-Study) as determined by metal ion immunostaining.
FIG. 11F is a bar graph depicting the fold-change in total and monocytic myeloid derived suppressor cells (MDSCs) in patients prior to the onset of treatment with VT1021 (pre-treatment) and during treatment with VT1021 (On-Study) as determined by metal ion immunostaining.
The blood samples were collected from GBM subjects in the expansion phase, who were treated by VT1021 at 11.8 mg/kg, twice weekly, by IV infusion. VT1021 levels were measured and analyzed among male and female subjects (FIG. 7). Days on study have been collected from the same group of subjects (FIG. 8). […] CD36 and CD47 levels have been measured by immunohistochemistry assays in the pre-treatment tumor biopsy samples of the GBM subjects (FIG. 9, FIG. 10). Levels of Tsp-1 were measured by ELISA for circulating Tsp-1 levels in the collected blood samples, and by immunohistochemistry for the level of Tsp-1 accumulated in the tumor biopsy samples (FIG. 10). The infiltration of immune and inflammatory cells, specifically, MDSCs, T cells and macrophages, were determined by immunohistochemical analysis of the levels of cell surface markers in the tumor biopsy samples of subjects (FIG. 11).
FIG. 11A, FIG. 11B, FIG. 11C, FIG. 11D, FIG. 11E, and FIG. 11F are charts showing modulation of the immune system by VT1021 in circulation and in the TME. […] Proliferating CTLs increased ≥1.5 fold regardless of clinical response, proliferating helper T cells increased ≥1.5 fold in CR/PR and PD subjects while monocytic MDSCs (mMDSCs) and activated MDSCs decreased≤0.5 fold in all evaluable subjects. […] Percent of M1 increased 1.9-fold while M2 decreased 0.6-fold after treatment. […] CTLs increased >4 fold while total and mMDSCs […] >15 fold in the on-study biopsy compared to pre-treatment.

[3] = on-study biopsy vs pre-treatment, multiplex ion beam imaging, increased

In the case of “cyclic DWLPK (also: cyclic, mode of cyclisation not given here) [VT1021, 5-amino acid cyclic peptide from prosaposin; Tsp-1-inducing agent]”, the pharmacokinetic profile ([1]; solid tumors including pancreatic cancer) is reported as “predictable”, the pharmacokinetic profile ([1]; solid tumors including rGBM) is reported as “predictable” and the “tumor burden compared to control subjects” value (GBM) is reported as “reduction in tumor burden”. The “subjects with stable disease” value (pancreatic cancer; Part 2 pancreatic cancer, all dually high CD36 and CD47) was 3 subjects, the “subjects with reduction of tumor burden” value (pancreatic cancer; of 14 Part 2 pancreatic cancer subjects with measurable disease, all dually high CD36 and CD47) was 5 subjects and the “average time remained on the study” value (pancreatic cancer; the 5 pancreatic cancer subjects with reduction of tumor burden (dually high)) was 105 days. For the same substance, the “M2 macrophages, fold change” value ([2]; biopsy pair pre-treatment vs on-study, decreased) was 0.6 fold, the “Percent of M1 macrophages, fold change” value ([2]; biopsy pair pre-treatment vs on-study, increased) was 1.9 fold and the “CTLs, fold change” value [2, 3] was > 4 fold. For the same substance, the “mMDSCs, fold change” value [2, 3] was > 15 fold and the “total MDSCs, fold change” value [2, 3] was > 15 fold.
